Data reported in publication PMC13206458, “A Synergistic Inhibitor Development Strategy Against Human UDP‐Galactose‐4‐Epimerase” (Angewandte Chemie (International Ed. in English), 2026).

How the values were obtained:
[1] = biological target: T1, GalE (Homo sapiens, UniProt Q14376); assay: Covalent fragment site identification by tryptic digest LCMS/MS; set-up: His tag (3C-cleavable; concluded from HisTrap purification and 3C cleavage) (cleaved yes); made in house; host or cells: Sf21 insect cells (baculovirus, described before) or E. coli BL21 (DE3)
T1 sequence (Q14376 1-348): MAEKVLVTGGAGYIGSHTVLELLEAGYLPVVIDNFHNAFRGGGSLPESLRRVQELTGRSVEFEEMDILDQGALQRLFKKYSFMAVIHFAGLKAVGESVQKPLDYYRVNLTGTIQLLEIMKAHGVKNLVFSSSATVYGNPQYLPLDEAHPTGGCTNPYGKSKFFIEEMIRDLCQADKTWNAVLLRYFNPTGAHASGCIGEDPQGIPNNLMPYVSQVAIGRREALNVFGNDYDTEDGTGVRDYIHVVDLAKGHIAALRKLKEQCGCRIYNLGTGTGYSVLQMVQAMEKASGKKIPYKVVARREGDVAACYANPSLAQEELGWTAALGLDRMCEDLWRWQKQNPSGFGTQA
Excerpt: • Options: Optimisation of hydrogens, keep tight waters (those that make 3 or more H-bonds), optimise His, Pro, Asn, Gln, and Cys side chains.
• Options: Optimisation of formal and partial charges, protonation states (at pH 7.5) and hydrogen placement.
• Identification of the binding pocket and building of receptor maps around X0213 using the ICM virtual screening function.
• Docking of libraries from SDFiles using the ICM virtual ligand screening function, selecting a thoroughness score of 3.
• All other docking parameters kept as default, and no additional triaging was […]
WBC01 and WBC02 Covalent Fragment Site Identification Mass Spectrometry Recombinant human GalE (10 µM GalE, 25 mM HEPES, 50 mM NaCl) was first incubated with either WBC01 or WBC02 (25, 50, or 100 µM) or matched 1% (V/V) DMSO control for 24 hours at room temperature. Samples were separated by SDS-PAGE gel, stained with colloidal Coomassie InstantBlue (Abcam, Cambridge, UK), bands corresponding to GalE were excised, reduced in 10 mM DTT (in water) for 20 minutes at 55 °C, alkylated with 55 mM iodoacetamide (IAA) in the same buffer at room temperature for 20 minutes, and digested overnight using 100 ng trypsin in 10 mM ammonium bicarbonate at 37 °C (Promega, Wisconsin, USA) before being acidified with to 0.1% Trifluoracetic acid (TFA).
On an Ultimate 3000 nanoRSLC HPLC (Thermo Scientific, Massachusetts, USA), 1-10 µL of protein sample was loaded on a 20 mm x 75 µm Pepmap C18 trap column (Thermo Scientific) prior to elution via a 50 cm x 75 µm EasySpray C18 column into a Lumos Tribrid Orbitrap mass spectrometer (Thermo Scientific). A 45 minute gradient of 6% - 40% B was used followed by washing and re-equilibration (A= 2% ACN, 5% DMSO, 0.1% formic acid; B= 80% ACN, 5% DMSO, 0.1% formic acid). […]
bottom plate from a 10 mM source in DMSO. […] The plate was sealed, centrifuged (1 min, 1000 rpm), incubated at 20 °C for 6 h, and 15 µL aliquots were subsequently removed and analyzed by intact protein LC-MS to confirm modification. […]

[2] = biological target: T1, GalE; assay: Covalent fragment kinetics assay by intact-protein LCMS; format: binding; set-up: His tag (3C-cleavable; concluded from HisTrap purification and 3C cleavage) (cleaved yes); made in house; host or cells: Sf21 insect cells (baculovirus, described before) or E. coli BL21 (DE3)
[3] = biological target: T1, GalE; assay: Intact-protein LCMS covalent modification; format: binding; set-up: His tag (3C-cleavable; concluded from HisTrap purification and 3C cleavage) (cleaved yes); made in house; host or cells: Sf21 insect cells (baculovirus, described before) or E. coli BL21 (DE3); conditions: 0.5 µM GalE, 100 µM compound, 24 h incubation, one experiment
Excerpt: To advance GalE inhibitors towards a suitable probe, we next evaluated available crystal structures to identify nearby nucleophilic residues for developing covalent inhibitors (Figure 3A). Three residues close to the ligand binding pocket were identified as potential modification points for commonly employed covalent warheads, Tyr211, Tyr230 and Lys295 (Figure 3B). We screened a library of 347 sulfonyl fluoride‐containing fragments, reported to target Tyr/Lys residues (Figure 3C). Screening was performed by incubating fragments at 100 µM with 0.5 µM purified GalE for 24 h. Protein modification was then determined by intact‐protein LCMS. In this experiment, we deliberately omitted the addition of the NAD cofactor to keep the experimental conditions simple and potentially allow for the sampling of a larger conformational ensemble in GalE. […]
Buffer AGX1_B over 17 min.
A 5 µL sample was injected […]
The flow rate and temperature were set to 0.5 mL/min and 70 °C, respectively. […] The obtained spectra were analysed and deconvoluted with the MassHunter BioConfirm software (Agilent Technologies, Cheshire, UK). […] The spectra were then exported and analysed using software developed internally at GSK to determine relative % labelling. […]
controls were included. Samples were analysed by intact-LCMS as described above and the relative % protein modification determined. […]

[4] = biological target: T2, AGX1 (Homo sapiens, UniProt Q16222); assay: WBC11 alkyne protein labelling assay (CuAAC, streptavidin blot), AGX1 control; format: binding; set-up: made in house; conditions: 10 µM WBC11
T2 sequence (Q16222 1-505 isoform Q16222-2, species assumed): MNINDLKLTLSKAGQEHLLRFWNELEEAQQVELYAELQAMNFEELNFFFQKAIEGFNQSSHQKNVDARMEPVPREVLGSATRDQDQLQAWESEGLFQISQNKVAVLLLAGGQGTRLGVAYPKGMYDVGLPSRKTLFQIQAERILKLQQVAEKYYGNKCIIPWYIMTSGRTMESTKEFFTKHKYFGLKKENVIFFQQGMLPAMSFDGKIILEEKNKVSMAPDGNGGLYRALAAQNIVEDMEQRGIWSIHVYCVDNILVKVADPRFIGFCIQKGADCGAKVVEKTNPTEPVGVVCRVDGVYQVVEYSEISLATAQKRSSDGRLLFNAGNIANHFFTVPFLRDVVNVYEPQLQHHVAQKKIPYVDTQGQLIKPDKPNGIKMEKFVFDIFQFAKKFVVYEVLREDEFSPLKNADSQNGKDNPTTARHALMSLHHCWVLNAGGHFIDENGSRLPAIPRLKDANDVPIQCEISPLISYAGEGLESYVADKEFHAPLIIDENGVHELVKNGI
Procedure: dependent analysis (DDA).
methionine were allowed. […] (293.30
WBC11 Alkyne protein labelling assay
minutes at room temperature.
Membrane was blocked for 1 hour with
Each total protein signal value was
normalisation factor for each band.
normalised densitometry score.

[5] = biological target: T1, GalE; assay: WBC11 alkyne protein labelling assay (CuAAC, streptavidin blot), GalE; conditions: 95°C for 5 min in sodium dodecyl sulphate loading buffer
Procedure: We then used WBC11 to trace covalent GalE modification (Figure 5D). […] The traceable nature of WBC11 allowed us to assess the stability of the sulfonyl ester bond to Tyr211.
Recombinant samples of either GalE or AGX1 (0.5 µg enzyme in 25 mM HEPES pH
7.5, 50 mM NaCl, 200 µM NAD) were incubated with either 10 µM WBC11 alkyne, 100
final conditions) for 1 hour at room temperature in 27 µL volume. Samples then
underwent copper-catalyzed azide-alkyne cycloaddition (CuAAC) with 100 µM biotin
picolyl azide (Sigma-Aldrich), 600 µM copper(II) sulfate, 1.2 mM 2-(4-((Bis((1-(tert-
butyl)-1H-1,2,3-triazol-4-yl)methyl)amino)methyl)-1H-1,2,3-triazol-1-yl)acetic acid
(BTTAA), 5 mM sodium ascorbate, and 5 mM amminoguanidine hydrochloride for 30
concentration. Stability of the covalent bond was assessed by incubating the GalE-
WBC11 conjugate for 5 minutes at 95 °C. Samples were run on an 4%-20% SDS
PAGE gel (CriterionTM TGXTM Precast Midi Protein Gel, Bio-Rad) for 70 mins at 160V.
Western blot transfer to 0.2 µm nitrocellulose membrane (Bio-Rad) was done with the
Transblot-Blot Turbo Transfer System (Bio-Rad) at the HIGH MW protocol (10 mins,
2.5 A, up to 25 V). For total protein staining, membrane was incubated with Revert 700
Total Protein stain (LI-COR) for 5 mins. Membrane was blocked for 1 hour with […]
analysed on Image Studio (version 6.0, LI-COR). […]

[6] = biological target: T1, GalE; assay: Differential scanning fluorimetry (DSF) thermal shift assay; format: binding; set-up: His tag (3C-cleavable; concluded from HisTrap purification and 3C cleavage) (cleaved yes); made in house; host or cells: Sf21 insect cells (baculovirus, described before) or E. coli BL21 (DE3); conditions: relative to DMSO controls, three technical replicates
[7] = biological target: T1, GalE; assay: GalE epimerisation assay (HPAEC, UDP-Gal to UDP-Glc), non-covalent concentration-response
Procedure: The GalE enzyme assay uses high‐performance anion exchange chromatography (HPAEC) to determine the conversion of UDP‐Gal to UDP‐Glc (Figure S3A) [28].
For in vitro epimerisation, 20 µL reactions were performed in 25 mM HEPES, pH 7.5,
50 mM NaCl, 200 µM NAD with 100 µM UDP-Gal and 5 nM GalE. Reactions were run
minute. Samples were cooled to 4 °C and analysed by high performance liquid
chromatography (HPLC) using an ArcPremier Waters instrument with a Dionex
CarboPac PA1 IC (2mm x 150 mM) column (Waters, Wilmslow, UK). Injection volume
was 5 µL. Eluent A was 1 M NaOAc/1 mM NaOH (Sigma-Aldrich, St. Louis, USA).
The % conversion for each assay was determined by
the relative difference in peak area between UDP-Gal and UDP-Glc peaks. Kinetics
factors (KM and kcat) were determined by non-linear curve fitting using Graphpad Prism
9.0 GraphPad Software. Calculations used a modified version of the Michaelis-Menten
𝜈(𝐺𝐴𝐿𝐸) = [𝐺𝐴𝐿𝐸]! ∙ 𝑘#$! ∙[𝑈𝐷𝑃 − 𝐺𝑎𝑙]
Equation 1: Michaelis-Menten Equation as used in GraphPad.
Where 𝜈 is the initial rate in µM/s.
𝐾%is the Michaelis-Menten constant in µM.
[𝐺𝐴𝐿𝐸]! is the concentration of GalE in µM in the assay.
𝑘#$!is the turnover number in s-1.
[𝑈𝐷𝑃 − 𝐺𝑎𝑙] is the concentration of UDP-Gal at the start of the reaction in µM.
Non-Covalent Compound Concentration-Response Assay […]
only-controls and activity assessed by epimerisation assay.

[8] = biological target: T1, GalE; assay: Isothermal titration calorimetry (ITC); format: binding; set-up: His tag (3C-cleavable; concluded from HisTrap purification and 3C cleavage) (cleaved yes); made in house; host or cells: Sf21 insect cells (baculovirus, described before) or E. coli BL21 (DE3); conditions: 25 °C, one experiment, approximate/estimated
[9] = biological target: T2, AGX1; assay: AGX1 inhibition assay; conditions: 400 µM WBX09, multiple enzyme concentrations
Procedure: Recombinant AGX1 was expressed before.[14] Commercial N-Acetyl-D-glucosamine 1-
phosphate disodium salt (GlcNAc-1-P, Sigma Aldrich) was used as a substrate to
absorbance-based assay. Reactions were carried out using 0.5 mM GlcNAc-1-P, 1
either 5 nM, 10 nM or 20 nM AGX1 in a total volume of 20 µL reaction buffer (5 mM
Reactions were stopped by the addit ion of an equal volume of ice-cold acetonitrile,
followed by centrifugation at 16200 g, 4 °C for 30 min. The supernatant of each
reaction was analysed by injecting 9 µL into Acquity H -Class PLUS QDa UPLC -MS
(Waters, Milford, USA) equipped with an ACQUITY UPLC® Glycan BEH Amide
column (130 Å, 1.7 μ m, 2.1 x 100 mm, Waters). Samples were run a t a flow rate of
0.35 mL/min, column temperature at 50 °C and sample manager (sample tray) at 10
°C using Buffer AGX1_ A (10 mM ammonium formate at pH 4.5); Buffer AGX1_ B (10
Product formation was monitored by absorption at 260
nm and further confirmed by mass detection in negative mode. Turnover (%) was
determined by integration of the product’s UV peaks and plotting it against a standard
curve of 0-2.5 mM UDP-GlcNAc (Sigma- Aldrich) produced by serial dilution in final

[10] = Hepatocyte stability assay; format: in vitro ADME; conditions: hepatocytes, preliminary DMPK
[11] = biological target: T3, MGAT2 (Homo sapiens, UniProt Q10469); assay: MGAT2 inhibition assay; conditions: 400 µM WBX09, multiple enzyme concentrations
T3 sequence (Q10469 1-447): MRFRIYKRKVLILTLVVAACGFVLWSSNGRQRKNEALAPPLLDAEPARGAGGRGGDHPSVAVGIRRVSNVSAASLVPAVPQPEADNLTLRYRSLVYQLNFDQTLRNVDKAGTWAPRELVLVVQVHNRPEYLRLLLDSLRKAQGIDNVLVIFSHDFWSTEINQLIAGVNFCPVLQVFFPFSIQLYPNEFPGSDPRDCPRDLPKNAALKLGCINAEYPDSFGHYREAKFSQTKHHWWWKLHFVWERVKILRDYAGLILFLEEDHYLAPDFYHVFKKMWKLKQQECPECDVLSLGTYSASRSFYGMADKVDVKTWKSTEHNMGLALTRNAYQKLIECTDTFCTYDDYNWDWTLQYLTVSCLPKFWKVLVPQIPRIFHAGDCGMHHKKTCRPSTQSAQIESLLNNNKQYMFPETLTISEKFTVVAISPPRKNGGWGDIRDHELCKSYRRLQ
Procedure: MGAT2 was recombinantly expressed before.[13] Reaction mixtures were prepared by
an equivalent volume of DMSO, in a total of 10 μL reaction buffer (50 mM Tris pH 6.8,
with 5 mM MnCl2, 0.1% BSA and 0.1% Triton-X100). Reactions were carried out at
centrifuged at for 30 min at 14,000 g at 4°C to precipitate proteins. Of each sample, 9
µL of the supernatant was injected onto an Acquity H-Class PLUS QDa UPLC-MS
(Waters) equipped with an ACQUITY UPLC® Glycan BEH Amide column (130 Å, 1.7
μm, 2.1 x 100 mm, Waters). Samples were run at flow rate of 0.35 mL/min using Buffer
MGAT2_A (10 mM Ammonium formate at pH 4.5); Buffer MGAT2_B (10 mM
The turnover of the procainamide acceptor glycan into the
of the acceptor substrate and the product glycan.

[12] = GalE incubated with 100, 50 or 25 µM compound, tryptic digest MS

O=S(=O)(F)c1cccc(-c2cc(O)c3ccccc3n2)c1 [WBC01]
residue modified [1, 12]: Tyr211

O=C(NCc1ccc(Cl)c(Cl)c1)c1cccc(S(=O)(=O)F)c1 [WBC02]
residue modified [1, 12]: Tyr211

Cc1cc(NC(=O)NCc2cccc(S(=O)(=O)F)c2)no1 [WBC03]
kinact/KI [2]: 11.7 M⁻¹ s⁻¹ | residue modified ([1]; 200-fold excess of compound, tryptic digest LCMS/MS): only Tyr211 | protein modification % [3]: > 95%

C#Cc1cc(CNC(=O)Nc2cc(C3CCC3)on2)cc(S(=O)(=O)F)c1 [WBC11]
biotin tagging of AGX1 control protein [4]: band of lower intensity | intensity of GalE-WBC11 adduct after heating (stability of covalent bond) [5]: did not change

Cc1cc(NC(=O)NCCC(=O)Nc2ccncc2)no1 [WBX04]
ΔTm [6]: 3.1 °C | IC50 [7]: 115 µM | Kd [8]: 9 ± 6 µM

O=C(CCNC(=O)Nc1cc(C2CCC2)on1)Nc1ccncc1 [WBX09]
effect on AGX1 activity [9]: No inhibition | half-life [10]: 16.4 min | hepatocyte CLint ([10]; read-out: intrinsic clearance): 42.4 µL/min/1e6 cells | effect on MGAT2 activity [11]: No inhibition

CCNC(=O)Nc1cc(C)on1 [X0213]
Kd [8]: ~468 µM
